Experimental data published in patent publication US12049450B2, “Pyridyloxy-carboxylate derivative and preparation method therefor, herbicidal composition, and use” (Qingdao Kingagroot Chemical Compound Co., Ltd., priority 2018, dated 2024).

Legend:
Test in all cases: Post-emergence test experiment (greenhouse pot, spray at 2-3 leaf stage)
Type in all cases: in vivo
Details in all cases: 1000 g/ha; post-emergence spray at 2-3 leaf stage; assessed after 3 weeks; fresh weight inhibition rate
Echinochloa crusgalli = test system: Echinochloa crusgalli
How it was run: (§1)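 Weed seeds sown in soil-filled pots in greenhouse, sprayed at 2-3 leaf stage (2 weeks after sowing) with compound in acetone/tween-80 plus methyl oleate emulsible concentrate (1.5 L/ha) diluted in water. Fresh-weight growth inhibition scored after 3 weeks on 0-5 scale (5: >85%, 0: <5%).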

Monochoria vaginalis = test system: Monochoria vaginalis
How it was run: as §1

Abutilon theophrasti = test system: Abutilon theophrasti
How it was run: as §1

Digitaria sanguinalis = test system: Digitaria sanguinalis
How it was run: as §1

Galium spurium = test system: Galium spurium
How it was run: as §1

SMILES | Activity level (growth inhibition rate) Echinochloa crusgalli (Echinochloa crusgalli) | Activity level (growth inhibition rate) Monochoria Vaginalis (Monochoria vaginalis) | Activity level (growth inhibition rate) Abutilon theophrasti (Abutilon theophrasti) | Activity level (growth inhibition rate) Digitaria sanguinalis (Digitaria sanguinalis) | Activity level (growth inhibition rate) Galium spurium (Galium spurium)
CC(Oc1nc(F)c(Cl)c(N)c1Cl)C(=O)OCc1nccn1C (stereo not shown) [Compound 130] | 5 (Level 5: the growth inhibition rate is greater than 85%) | 5 (Level 5: the growth inhibition rate is greater than 85%) | 5 (Level 5: the growth inhibition rate is greater than 85%) | 5 (Level 5: the growth inhibition rate is greater than 85%) | 5 (Level 5: the growth inhibition rate is greater than 85%)
CC(Oc1nc(F)c(Cl)c(N)c1Cl)C(=O)OCc1cncn1C (stereo not shown) [Compound 131] | 5 (Level 5: the growth inhibition rate is greater than 85%) | 5 (Level 5: the growth inhibition rate is greater than 85%) | 5 (Level 5: the growth inhibition rate is greater than 85%) | 5 (Level 5: the growth inhibition rate is greater than 85%) | 5 (Level 5: the growth inhibition rate is greater than 85%)
CC(Oc1nc(F)c(Cl)c(N)c1Cl)C(=O)SCc1ccnn1C (stereo not shown) [Compound 132] | 5 (Level 5: the growth inhibition rate is greater than 85%) | 5 (Level 5: the growth inhibition rate is greater than 85%) | 5 (Level 5: the growth inhibition rate is greater than 85%) | 5 (Level 5: the growth inhibition rate is greater than 85%) | 5 (Level 5: the growth inhibition rate is greater than 85%)
CCCn1cc(CCOC(=O)C(C)Oc2nc(F)c(Cl)c(N)c2Cl)cn1 (stereo not shown) [Compound 133] | 5 (Level 5: the growth inhibition rate is greater than 85%) | 5 (Level 5: the growth inhibition rate is greater than 85%) | 5 (Level 5: the growth inhibition rate is greater than 85%) | 5 (Level 5: the growth inhibition rate is greater than 85%) | 5 (Level 5: the growth inhibition rate is greater than 85%)
CC(Oc1nc(F)c(Cl)c(N)c1Cl)C(=O)SCc1nncn1C (stereo not shown) [Compound 134] | 5 (Level 5: the growth inhibition rate is greater than 85%) | 5 (Level 5: the growth inhibition rate is greater than 85%) | 5 (Level 5: the growth inhibition rate is greater than 85%) | 5 (Level 5: the growth inhibition rate is greater than 85%) | 5 (Level 5: the growth inhibition rate is greater than 85%)
CC(Oc1nc(F)c(Cl)c(N)c1Cl)C(=O)OCCc1cnn[nH]1 (stereo not shown) [Compound 135] | 5 (Level 5: the growth inhibition rate is greater than 85%) | 5 (Level 5: the growth inhibition rate is greater than 85%) | 5 (Level 5: the growth inhibition rate is greater than 85%) | 5 (Level 5: the growth inhibition rate is greater than 85%) | 5 (Level 5: the growth inhibition rate is greater than 85%)
CC(Oc1nc(F)c(Cl)c(N)c1Cl)C(=O)OCn1cncn1 (stereo not shown) [Compound 136] | 5 (Level 5: the growth inhibition rate is greater than 85%) | 5 (Level 5: the growth inhibition rate is greater than 85%) | 5 (Level 5: the growth inhibition rate is greater than 85%) | 5 (Level 5: the growth inhibition rate is greater than 85%) | 5 (Level 5: the growth inhibition rate is greater than 85%)
CC(Oc1nc(F)c(Cl)c(N)c1Cl)C(=O)SCn1ccnn1 (stereo not shown) [Compound 137] | 5 (Level 5: the growth inhibition rate is greater than 85%) | 5 (Level 5: the growth inhibition rate is greater than 85%) | 5 (Level 5: the growth inhibition rate is greater than 85%) | 5 (Level 5: the growth inhibition rate is greater than 85%) | 5 (Level 5: the growth inhibition rate is greater than 85%)
CC(Oc1nc(F)c(Cl)c(N)c1Cl)C(=O)OCc1nnnn1C (stereo not shown) [Compound 138] | 5 (Level 5: the growth inhibition rate is greater than 85%) | 5 (Level 5: the growth inhibition rate is greater than 85%) | 5 (Level 5: the growth inhibition rate is greater than 85%) | 5 (Level 5: the growth inhibition rate is greater than 85%) | 5 (Level 5: the growth inhibition rate is greater than 85%)
CC(Oc1nc(F)c(Cl)c(N)c1Cl)C(=O)SCc1ccco1 (stereo not shown) [Compound 139] | 5 (Level 5: the growth inhibition rate is greater than 85%) | 5 (Level 5: the growth inhibition rate is greater than 85%) | 5 (Level 5: the growth inhibition rate is greater than 85%) | 5 (Level 5: the growth inhibition rate is greater than 85%) | 5 (Level 5: the growth inhibition rate is greater than 85%)
CC(Oc1nc(F)c(Cl)c(N)c1Cl)C(=O)OCc1cnco1 (stereo not shown) [Compound 141] | 5 (Level 5: the growth inhibition rate is greater than 85%) | 5 (Level 5: the growth inhibition rate is greater than 85%) | 5 (Level 5: the growth inhibition rate is greater than 85%) | 5 (Level 5: the growth inhibition rate is greater than 85%) | 5 (Level 5: the growth inhibition rate is greater than 85%)
CC(Oc1nc(F)c(Cl)c(N)c1Cl)C(=O)SCCc1cocn1 (stereo not shown) [Compound 142] | 5 (Level 5: the growth inhibition rate is greater than 85%) | 5 (Level 5: the growth inhibition rate is greater than 85%) | 5 (Level 5: the growth inhibition rate is greater than 85%) | 5 (Level 5: the growth inhibition rate is greater than 85%) | 5 (Level 5: the growth inhibition rate is greater than 85%)
CC(Oc1nc(F)c(Cl)c(N)c1Cl)C(=O)OCc1ncco1 (stereo not shown) [Compound 143] | 5 (Level 5: the growth inhibition rate is greater than 85%) | 5 (Level 5: the growth inhibition rate is greater than 85%) | 5 (Level 5: the growth inhibition rate is greater than 85%) | 5 (Level 5: the growth inhibition rate is greater than 85%) | 5 (Level 5: the growth inhibition rate is greater than 85%)
CC(Oc1nc(F)c(Cl)c(N)c1Cl)C(=O)OCc1ccno1 (stereo not shown) [Compound 144] | 5 (Level 5: the growth inhibition rate is greater than 85%) | 5 (Level 5: the growth inhibition rate is greater than 85%) | 5 (Level 5: the growth inhibition rate is greater than 85%) | 5 (Level 5: the growth inhibition rate is greater than 85%) | 5 (Level 5: the growth inhibition rate is greater than 85%)
CC(Oc1nc(F)c(Cl)c(N)c1Cl)C(=O)SCc1ccon1 (stereo not shown) [Compound 145] | 5 (Level 5: the growth inhibition rate is greater than 85%) | 5 (Level 5: the growth inhibition rate is greater than 85%) | 5 (Level 5: the growth inhibition rate is greater than 85%) | 5 (Level 5: the growth inhibition rate is greater than 85%) | 5 (Level 5: the growth inhibition rate is greater than 85%)
CC(Oc1nc(F)c(Cl)c(N)c1Cl)C(=O)OCc1cnoc1 (stereo not shown) [Compound 146] | 5 (Level 5: the growth inhibition rate is greater than 85%) | 5 (Level 5: the growth inhibition rate is greater than 85%) | 5 (Level 5: the growth inhibition rate is greater than 85%) | 5 (Level 5: the growth inhibition rate is greater than 85%) | 5 (Level 5: the growth inhibition rate is greater than 85%)
Cc1noc(C)c1COC(=O)C(C)Oc1nc(F)c(Cl)c(N)c1Cl (stereo not shown) [Compound 147] | 5 (Level 5: the growth inhibition rate is greater than 85%) | 5 (Level 5: the growth inhibition rate is greater than 85%) | 5 (Level 5: the growth inhibition rate is greater than 85%) | 5 (Level 5: the growth inhibition rate is greater than 85%) | 5 (Level 5: the growth inhibition rate is greater than 85%)
